System: serum uric acid (sUA)
Experiment: Serum uric acid (sUA) levels and sUA responders, open-label study of pegloticase with MTX (NCT03635957)
Assay type: in vivo, human
Details: mITT
Description: The primary objective is to estimate the response rate during Month 6 (Weeks 20, 22, and 24), as measured by the sustained normalization of serum uric acid (SUA) to <6 mg/dL for at least 80% of the time during Month 6 in subjects receiving KXX with MTX.
The primary efficacy outcome endpoint is the sustained normalization of SUA to <6 mg/dL for at least 80% of the time during month 6 (weeks 20, 22, and 24) in subjects receiving KXX with MTX. This is slightly below the urate solubility threshold and this threshold has been the accepted standard for nearly all modern gout trials. Participants who achieve this endpoint were classified as “responders.” Serum uric acid (SUA) responders may also be defined as participants achieving and maintaining SUA <6 mg/dL for at least 80% of the time during Month 6 (Weeks 20, 22, and 24).
Blood samples may be collected prior to each pegloticase infusion for measurement of SUA levels using the Beckman Coulter AU System Uric Acid procedure. Participants were declared “non-responders” if there were SUA measures >6 mg/dL at 2 consecutive study visits beginning with the week 2 visit. […] If the SUA goal is not maintained before or at the 12-week mark, it was assumed that the participant had developed clinically relevant anti-pegloticase antibody and they received no further infusions. This assumption and subsequent discontinuation of pegloticase was consistent with the protocol of large phase III randomized controlled trials and the product label. A formal stopping rule was 2 occasions of SUA levels of greater than 6 mg/dL.
Clinical Chemistry—Blood samples were collected prior to each pegloticase infusion for measurement of SUA levels (primary efficacy parameter) using the Beckman Coulter AU System Uric Acid procedure. In this procedure uric acid is converted to hydrogen peroxide. Hydrogen peroxide reacts with reagent to produce a chromophore which is read bichromatically at 660/800 nm. The amount of dye formed is proportional to the uric acid concentration in the sample.
Serum samples for measurement of SUA levels were collected at the Screening Visit, the Week −4 Visit (prior to the first dose of MTX), and the Week −2 Visit during the MTX Run-in Period; within 48 hours prior to each pegloticase infusion and after the end of each pegloticase infusion prior to discharge from the site during the Pegloticase+IMM Period; at the non-infusion Week 52/End of Study/Early Termination Visits and at the Post Treatment 3 and 6 Month Follow-up Visits. Additional serum samples for SUA levels were collected at optional non-infusion (Frequent Sampling) Visits at Weeks 1 and 7. […] Subjects with SUA level >6 mg/dL at 2 consecutive visits beginning at Week 2 visit discontinued treatment, completed the End of Pegloticase Infusion Visit procedures within 2 weeks and continued the subject visits according to the protocol (without treatment).
Efficacy analyses were performed using the modified intention-to-treat (mITT) population, defined as all enrolled subjects who received ≥1 dose of pegloticase. The proportion of Month 6 responders was summarized, along with a 95% confidence interval for the proportion. The proportion of Month 3 and overall (Months 3 and 6 combined) responders was analyzed similarly.
A subject was declared a non-responder if the subject had SUA level >6 mg/dL at 2 consecutive study visits beginning with the Week 2 Visit. In addition, a subject who withdraws from study treatment for any reason after the first dose of pegloticase in the KXX+MTX Period and prior to Month 6 (for the primary endpoint) or Month 3 (for the secondary endpoint) was considered a non-responder if SUA values were not collected at the planned time points.
Patients were administered oral MTX (15 mg/week) and folate (1 mg/day) 4 weeks prior to the first pegloticase infusion (Day 1) and throughout the pegloticase treatment period. […]

[1] = Day 1 - Pre-Infusion (after MTX Run-in)

## CN(Cc1cnc2nc(N)nc(N)c2n1)c1ccc(C(=O)N[C@@H](CCC(=O)O)C(=O)O)cc1 [MTX, methotrexate]
[1]
  sUA Change from Methotrexate Baseline, Mean (SD): 0.25 (1.283) mg/dL
  sUA Change from Methotrexate Baseline, Median: -0.25 mg/dL
  sUA Observed, Median: 9.00 mg/dL
  sUA ≤ 6 mg/dL, n (%): 1 (7.1%) n (%)
Week -2 (MTX Run-in Period)
  sUA Change from Methotrexate Baseline, Mean (SD): 0.54 (0.839) mg/dL
  sUA Change from Methotrexate Baseline, Median: 0.50 mg/dL
  sUA Observed, Median: 9.30 mg/dL
  sUA ≤ 6 mg/dL, n (%): 1 (7.1%) n (%)

From patent publication US20220323445A1, “REDUCING IMMUNOGENICITY TO PEGLOTICASE” (Horizon Therapeutics Ireland DAC, priority 2020, published 2022)
